Tested on: Annual Ryegrass (LOLRI)
Assay: Field trials throughout Australia, annual ryegrass (LOLRI) counts
Assay type: in vivo
Conditions: for % control: from mean vs untreated control; for Mean Plants/m2: mean of the seven trials
Experimental: A series of field trials were conducted throughout Australia to assess the performance of Example 5 composition (400 g/L trifluralin+117 g/L cinmethylin+UAN compatibiliser) versus the performance of either trifluralin or cinmethylin applied as standalone treatments.
All trials were sown under a knifepoint/reduced tillage seeding systems with trial design and management reflecting common district and grower practice. Rates of herbicide application were designed to allow comparison of the co-mixture and solvency package against the relative merits of either active ingredient applied alone in their currently available commercial formulation package (see table below).
Products were applied prior to sowing and were applied in water with industry accepted application equipment and spray nozzles.

For `CCCN(CCC)c1c([N+](=O)[O-])cc(C(F)(F)F)cc1[N+](=O)[O-]` [Trifluralin, trifluralin], the “LOLRI Plants/m2” value (720 gai/ha, Vic Lentils 81-DAT) was 26 Plants/m2, the “LOLRI Plants/m2” value (720 gai/ha, Vic Lentils H02 51-DAT) was 21 Plants/m2 and the “LOLRI Plants/m2” value (720 gai/ha, Vic Wheat 49-DAT) was 105 Plants/m2. The “LOLRI Plants/m2” value (720 gai/ha, Vic Wheat H03 79-DAT) was 168 Plants/m2, the “LOLRI Plants/m2” value (720 gai/ha, WA Canola W06-197 27-DAT) was 264 Plants/m2 and the “LOLRI Plants/m2” value (720 gai/ha, WA Lupins W06-200 19-DAT) was 224 Plants/m2. For the same compound, the “LOLRI Plants/m2” value (720 gai/ha, WA Wheat W06-196 27-DAT) was 191 Plants/m2, the “% control” value (720 gai/ha) was 63% and the “Mean Plants/m2” value (720 gai/ha) was 143 Plants/m2. The “LOLRI Plants/m2” value (960 gai/ha, Vic Lentils 81-DAT) was 22 Plants/m2, the “LOLRI Plants/m2” value (960 gai/ha, Vic Lentils H02 51-DAT) was 19 Plants/m2 and the “LOLRI Plants/m2” value (960 gai/ha, Vic Wheat 49-DAT) was 10 Plants/m2. For the same compound, the “LOLRI Plants/m2” value (960 gai/ha, Vic Wheat H03 79-DAT) was 22 Plants/m2, the “LOLRI Plants/m2” value (960 gai/ha, WA Canola W06-197 27-DAT) was 208 Plants/m2 and the “LOLRI Plants/m2” value (960 gai/ha, WA Lupins W06-200 19-DAT) was 169 Plants/m2. For the same compound, the “LOLRI Plants/m2” value (960 gai/ha, WA Wheat W06-196 27-DAT) was 207 Plants/m2, the “% control” value (960 gai/ha) was 76% and the “Mean Plants/m2” value (960 gai/ha) was 94 Plants/m2. The “LOLRI Plants/m2” value (1440 gai/ha, Vic Lentils 81-DAT) was 23 Plants/m2, the “LOLRI Plants/m2” value (1440 gai/ha, Vic Lentils H02 51-DAT) was 14 Plants/m2 and the “LOLRI Plants/m2” value (1440 gai/ha, Vic Wheat 49-DAT) was 29 Plants/m2. The “LOLRI Plants/m2” value (1440 gai/ha, Vic Wheat H03 79-DAT) was 33 Plants/m2, the “LOLRI Plants/m2” value (1440 gai/ha, WA Canola W06-197 27-DAT) was 156 Plants/m2 and the “LOLRI Plants/m2” value (1440 gai/ha, WA Lupins W06-200 19-DAT) was 184 Plants/m2. For the same compound, the “LOLRI Plants/m2” value (1440 gai/ha, WA Wheat W06-196 27-DAT) was 135 Plants/m2, the “% control” value (1440 gai/ha) was 79% and the “Mean Plants/m2” value (1440 gai/ha) was 82 Plants/m2.

`Cc1ccccc1CO[C@@H]1C[C@@]2(C(C)C)CC[C@]1(C)O2` (racemic) [Cinmethylin] was tested, and the “LOLRI Plants/m2” value (100 gai/ha, Vic Lentils 81-DAT) was 18 Plants/m2, the “LOLRI Plants/m2” value (100 gai/ha, Vic Lentils H02 51-DAT) was 15 Plants/m2 and the “LOLRI Plants/m2” value (100 gai/ha, Vic Wheat 49-DAT) was 69 Plants/m2. The “LOLRI Plants/m2” value (100 gai/ha, Vic Wheat H03 79-DAT) was 136 Plants/m2, the “LOLRI Plants/m2” value (100 gai/ha, WA Canola W06-197 27-DAT) was 419 Plants/m2 and the “LOLRI Plants/m2” value (100 gai/ha, WA Lupins W06-200 19-DAT) was 503 Plants/m2. The “LOLRI Plants/m2” value (100 gai/ha, WA Wheat W06-196 27-DAT) was 300 Plants/m2, the “% control” value (100 gai/ha) was 46% and the “Mean Plants/m2” value (100 gai/ha) was 208 Plants/m2. The “LOLRI Plants/m2” value (200 gai/ha, Vic Lentils 81-DAT) was 10 Plants/m2, the “LOLRI Plants/m2” value (200 gai/ha, Vic Lentils H02 51-DAT) was 8 Plants/m2 and the “LOLRI Plants/m2” value (200 gai/ha, Vic Wheat 49-DAT) was 67 Plants/m2. The “LOLRI Plants/m2” value (200 gai/ha, Vic Wheat H03 79-DAT) was 78 Plants/m2, the “LOLRI Plants/m2” value (200 gai/ha, WA Canola W06-197 27-DAT) was 307 Plants/m2 and the “LOLRI Plants/m2” value (200 gai/ha, WA Lupins W06-200 19-DAT) was 235 Plants/m2. The “LOLRI Plants/m2” value (200 gai/ha, WA Wheat W06-196 27-DAT) was 264 Plants/m2, the “% control” value (200 gai/ha) was 64% and the “Mean Plants/m2” value (200 gai/ha) was 138 Plants/m2. The “LOLRI Plants/m2” value (400 gai/ha, Vic Lentils 81-DAT) was 14 Plants/m2, the “LOLRI Plants/m2” value (400 gai/ha, Vic Lentils H02 51-DAT) was 10 Plants/m2 and the “LOLRI Plants/m2” value (400 gai/ha, Vic Wheat 49-DAT) was 22 Plants/m2. The “LOLRI Plants/m2” value (400 gai/ha, Vic Wheat H03 79-DAT) was 19 Plants/m2, the “LOLRI Plants/m2” value (400 gai/ha, WA Canola W06-197 27-DAT) was 324 Plants/m2 and the “LOLRI Plants/m2” value (400 gai/ha, WA Lupins W06-200 19-DAT) was 124 Plants/m2. The “LOLRI Plants/m2” value (400 gai/ha, WA Wheat W06-196 27-DAT) was 229 Plants/m2, the “% control” value (400 gai/ha) was 73% and the “Mean Plants/m2” value (400 gai/ha) was 106 Plants/m2.

Reference: patent publication US20080254983A1, “Herbicide Composition” (NUFARM AUSTRALIA LIMITED, priority 2005, published 2008)
